The target in the assay is T1, human recombinant ENPP1 enzymes (Homo sapiens, UniProt P22413).
T1 construct: purchased R & D systems
T1 sequence (P22413 1-925): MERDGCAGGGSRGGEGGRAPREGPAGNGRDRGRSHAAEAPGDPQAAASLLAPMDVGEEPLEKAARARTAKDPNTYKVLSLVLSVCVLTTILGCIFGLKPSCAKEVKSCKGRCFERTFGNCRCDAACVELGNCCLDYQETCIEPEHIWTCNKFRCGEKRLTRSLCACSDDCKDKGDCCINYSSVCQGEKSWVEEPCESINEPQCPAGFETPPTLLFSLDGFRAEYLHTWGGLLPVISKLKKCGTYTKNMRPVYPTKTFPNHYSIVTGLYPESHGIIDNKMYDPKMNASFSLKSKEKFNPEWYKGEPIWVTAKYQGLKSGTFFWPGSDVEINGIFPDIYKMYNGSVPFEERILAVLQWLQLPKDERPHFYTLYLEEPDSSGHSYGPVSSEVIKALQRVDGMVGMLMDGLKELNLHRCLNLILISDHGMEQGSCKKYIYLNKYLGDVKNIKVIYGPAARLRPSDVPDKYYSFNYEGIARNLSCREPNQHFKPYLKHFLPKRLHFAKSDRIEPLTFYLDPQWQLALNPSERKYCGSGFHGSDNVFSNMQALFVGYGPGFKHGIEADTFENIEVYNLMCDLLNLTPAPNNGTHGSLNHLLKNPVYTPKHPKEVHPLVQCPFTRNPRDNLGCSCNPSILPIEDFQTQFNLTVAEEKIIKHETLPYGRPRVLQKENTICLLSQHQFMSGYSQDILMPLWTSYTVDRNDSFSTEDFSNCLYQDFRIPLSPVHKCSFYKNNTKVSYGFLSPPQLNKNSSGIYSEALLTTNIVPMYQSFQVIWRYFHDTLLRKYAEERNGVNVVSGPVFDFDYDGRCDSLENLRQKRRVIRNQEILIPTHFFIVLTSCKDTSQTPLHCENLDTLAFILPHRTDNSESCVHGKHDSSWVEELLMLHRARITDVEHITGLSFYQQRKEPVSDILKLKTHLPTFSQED
Nature of the assay: ENPP1 Enzyme Assay with cGAMP Substrate (AMP-Glo). It is filed as biochemical. The conditions noted are these: human recombinant ENPP1 3 ng/reaction, cGAMP 5 μM, 37° C. 90 minutes, average of two or more tests; read-out: Enzymatic activity IC50. As for the experimental part:
ENPP1 hydrolyzes nucleotides or nucleotide derivatives to produce nucleoside-5′-monophosphate and pyrophosphate. In addition, ENPP1 hydrolyzes 2′,3′-cGAMP to produce 5′-adenosine monophosphate (AMP) and 5′-guanosine monophosphate (GMP). AMP produced from the reaction is measured using the AMP-Glo® kit (Promega). The AMP-Glo® kit contains two reagents. The first reagent terminates the AMP-producing enzymatic reaction, removes ATP and converts the produced AMP into ADP. The second reagent converts ADP to ATP which is used to generate luminescence in the luciferase reaction. The amount of luminescence measured is proportional to the amount of AMP produced by ENPP1.
The final reaction mixture contains 50 mM Tris (pH 8.5) buffer, 250 mM NaCl, 0.5 mM CaCl2), 1 μM ZnCl2, 5% glycerol and 1% DMSO. Serially diluted ENPP1 inhibitors (typically in the range of 10 μM to 0.5 nM) were pre-stored with human recombinant ENPP1 enzymes (R & D systems) at 3 ng/reaction and room temperature (RT) for 5 to 10 minutes. The reaction was initiated by addition of cGAMP (at a final concentration of 5 μM) and reacted at 37° C. for 90 minutes. At the end of the reaction, 10 μl of the AMP-Glo first reagent was added to stop the reaction and the result was stored at room temperature for 1 hour. After storage, 20 μl of an AMP detection solution (a mixture of AMP-Glo II reagent and Kinase-Glo at a ratio of 1:100) was added and stored at room temperature for 1 hour. Luminescence signals were measured using a Victor® plate reader (Perkin Elmer). The maximal activity control (containing enzymes and substrates in the presence of 1% DMSO; MAX) and the minimal activity control (containing substrates and 1% DMSO; MIN) were evaluated simultaneously. In each experiment, serially diluted reference ENPP1 inhibitors were tested as well. IC50, indicating % residual activity versus compound concentration was determined by fitting inhibition curves using the 3-parameter analysis of GraphPad Prism® software. Serially diluted samples of one compound were tested two or more times and an average IC50 of each compound was calculated.

Experimental findings from patent publication US20240140944A1, “NOVEL NAPHTHYRIDINONE DERIVATIVE HAVING INHIBITORY ACTIVITY AGAINST ECTONUCLEOTIDE PYROPHOSPHATASE-PHOSPHODIESTERASE AND USE THEREOF” (TXINNO BIOSCIENCE INC., priority 2020, published 2024) are described below.

Structures are written as SMILES. Structures can show the parent of a compound that is named as a salt. Where only a bound is given, the exact number is not on record here.

As for `CC(C)(N)c1ccc(-c2ccnc3c2CCC(=O)N3)cc1` [Example 134, 5-(4-(2-aminopropan-2-yl)phenyl)-3,4-dihydro-1,8-naphthyridin-2(1H)-one hydrochloride], the IC50 (commonly the point on the concentration scale where inhibition reaches its midpoint) was under 1 µM. For the compound `NS(=O)(=O)N1CCCc2ccc(Nc3ccnc4[nH]c(=O)ccc34)cc2C1` [Example 103, (8-((7-oxo-7,8-dihydro-1,8-naphthyridin-4-yl)amino)-1,3,4,5-tetrahydro-2 (1H)-benzo[c]azepin-2-yl)sulfamide dihydrochloride], the IC50 is 1 to 10 µM. In the case of `NS(=O)(=O)NCc1ccc(Nc2ccnc3[nH]c(=O)ccc23)c(Cl)c1` [Example 100, N-(3-chloro-4-((7-oxo-7,8-dihydro-1,8-naphthyridin-4-yl)amino)benzyl)sulfamide dihydrochloride] it was 1 to 10 µM; in that of `NCc1ccc(Nc2ccnc3[nH]c(=O)ccc23)cc1` [Example 82, 5-((4-(aminomethyl)phenyl)amino)-1,8-naphthyridin-2(1H)-one dihydrochloride], under 1 µM. Under `NS(=O)(=O)Nc1ccc(-c2ccnc3[nH]c(=O)ccc23)cc1` [Example 39, N-(4-(7-oxo-7,8-dihydro-1,8-naphthyridin-4-yl)phenyl)sulfamide] stands 1 to 10 µM; under `O=c1ccc2c(N3CCC4(CCNC4)CC3)ccnc2[nH]1` [Example 117, 5-(2,8-diazaspiro[4,5]decan-8-yl)-1,8-naphthyridin-2(1H)-one hydrochloride], 1 to 10 µM; under `NCc1cccc(-c2ccnc3c2CCC(=O)N3)c1` [Example 132, 5-(3-(aminomethyl)phenyl)-3,4-dihydro-1,8-naphthyridin-2(1H)-one hydrochloride], over 10 µM. In the case of `NS(=O)(=O)NCCC1CCN(c2ccnc3[nH]c(=O)ccc23)CC1` [Example 125, N-(2-(1-(7-oxo-7,8-dihydro-1,8-naphthyridin-4-yl)piperidin-4-yl)ethyl)sulfamide] it was under 1 µM; in that of `C[C@@H](NS(N)(=O)=O)c1ccc(-c2ccnc3[nH]c(=O)ccc23)cc1` [Example 46, (R)-(N-(1-(4-(7-oxo-7,8-dihydro-1,8-naphthyridin-4-yl)phenyl)ethyl)sulfamide hydrochloride], under 1 µM. Regarding `NS(=O)(=O)NCc1ccc(F)c(Nc2ccnc3[nH]c(=O)ccc23)c1` [Example 91, N-(4-fluoro-3-((7-oxo-7,8-dihydro-1,8-naphthyridin-4-yl)amino)benzyl)sulfamide dihydrochloride], the half-maximal inhibitory concentration (IC50) was under 1 µM. Under `NS(=O)(=O)N1CCC2(CCN(c3ccnc4[nH]c(=O)ccc34)CC2)C1` [Example 126, 8-(7-oxo-7,8-dihydro-1,8-naphthyridin-4-yl)-2,8-diazaspiro[4,5]decane-2-sulfamide] stands under 1 µM; under `CC(C)N(Cc1ccc(-c2ccnc3[nH]c(=O)ccc23)c(F)c1)S(N)(=O)=O` [Example 57, N-(3-fluoro-4-(7-oxo-7,8-dihydro-1,8-naphthyridin-4-yl)benzyl)-N-isopropyl)sulfamide hydrochloride], over 10 µM; under `CCOP(=O)(O)Cc1ccc(-c2ccnc3[nH]c(=O)ccc23)cc1` [Example 74, ethylhydrogen(4-(7-oxo-7,8-dihydro-1,8-naphthyridin-4-yl)benzyl)phosphonate], 1 to 10 µM. Under `NCc1cccc(Nc2ccnc3[nH]c(=O)ccc23)c1` [Example 77, 5-((3-aminomethyl)phenyl)amino)-1,8-naphthyridin-2(1H)-one dihydrochloride] stands under 1 µM; under `Cn1c(=O)ccc2c(N3CCC(CN)CC3)ccnc21` [Example 118, 5-(4-(aminomethyl)piperidin-1-yl)-1-methyl-1,8-naphthyridin-2(1H)-one hydrochloride], over 10 µM; under `NS(=O)(=O)N1CCCN(c2ccnc3[nH]c(=O)ccc23)CC1` [Example 127], 1 to 10 µM.
